Assay results reported in US9738932B2, “Biomarkers for cardiovascular side-effects induced by cox-2 inhibitory compounds” (FIRALIS SAS, priority 2005, dated 2017).

Tested on: mRNA expression in cardiovascular tissues
Experiment: Affymetrix GeneChip mRNA expression profiling of monkey tissues (iliac vein, pulmonary vein, aorta, carotid artery, heart) after two-week oral-gavage treatment
Conditions: iliac vein
[1] = group average (Vioxx without A60055)
[2] = group avg, Vioxx without A60055

CS(=O)(=O)c1ccc(C2=C(c3ccccc3)C(=O)OC2)cc1 [Vioxx®, rofecoxib]
BCL6 (215990_s_at) mRNA expression, Avg fold changes vs control [1]: 1.0 fold | BTN2A2 (205298_s_at) mRNA expression, Avg fold changes vs control [1]: 1.1 fold | CCR1 (205098_at) mRNA expression, Avg fold changes vs control [1]: 1.1 fold | CD2 (205831_at) mRNA expression, Avg fold changes vs control [1]: 1.1 fold | CD48 (204118_at) mRNA expression, Avg fold changes vs control [1]: 1.1 fold | CD53 (203416_at) mRNA expression, Avg fold changes vs control [1]: 1.2 fold | CDC2 (210559_s_at) mRNA expression, Avg fold changes vs control [1]: 1.0 fold | CYBB (203922_s_at) mRNA expression, Avg fold changes vs control [1]: 1.2 fold | EMP3 (203729_at) mRNA expression, Avg fold changes vs control [1]: 0.7 fold | FCER1G (204232_at) mRNA expression, Avg fold changes vs control [1]: 0.9 fold | FCGR2A (203561_at) mRNA expression, Avg fold changes vs control [1]: 1.1 fold | FCGRT (218831_s_at) mRNA expression, Avg fold changes vs control [1]: 1.0 fold | FKBP11 (219117_s_at) mRNA expression, Avg fold changes vs control [1]: 0.7 fold | FKBP11 (219118_at) mRNA expression, Avg fold changes vs control [1]: 0.6 fold | GP6 (220336_s_at) mRNA expression, Avg fold changes vs control [1]: 1.2 fold | HCLS1 (202957_at) mRNA expression, Avg fold changes vs control [1]: 1.2 fold | HEM1 (209734_at) mRNA expression, Avg fold changes vs control [1]: 1.2 fold | HLA-A (210514_x_at) mRNA expression, Avg fold changes vs control [1]: 1.2 fold | HLA-A (213932_x_at) mRNA expression, Avg fold changes vs control [1]: 1.2 fold | HLA-C (211799_x_at) mRNA expression, Avg fold changes vs control [1]: 1.0 fold | HLA-E (200904_at) mRNA expression, Avg fold changes vs control [1]: 1.1 fold | HLA-F (221978_at) mRNA expression, Avg fold changes vs control [1]: 1.3 fold | ICAM1 (202637_s_at) mRNA expression, Avg fold changes vs control [1]: 0.8 fold | IL13RA1 (210904_s_at) mRNA expression, Avg fold changes vs control [1]: 1.1 fold | PIK3CD (203879_at) mRNA expression, Avg fold changes vs control [1]: 1.1 fold | PRKCBP1 (209048_s_at) mRNA expression, Avg fold changes vs control [1]: 1.3 fold | PRKCBP1 (209049_s_at) mRNA expression, Avg fold changes vs control [1]: 1.0 fold | PTPN7 (204852_s_at) mRNA expression, Avg fold changes vs control [1]: 1.4 fold | SIGIRR (52940_at) mRNA expression, Avg fold changes vs control [1]: 1.1 fold | STAT1 (200887_s_at) mRNA expression, Avg fold changes vs control [1]: 1.2 fold | STAT1 (AFFX-HUMISGF3A/M97935_3_at) mRNA expression, Avg fold changes vs control [1]: 1.1 fold | STAT3 (208992_s_at) mRNA expression, Avg fold changes vs control [1]: 1.0 fold | TCIRG1 (204158_s_at) mRNA expression, Avg fold changes vs control [1]: 1.0 fold | THY1 (213869_x_at) mRNA expression, Avg fold changes vs control [1]: 0.8 fold | TMPO (209753_s_at) mRNA expression, Avg fold changes vs control [1]: 0.8 fold | TMSB10 (217733_s_at) mRNA expression, Avg fold changes vs control [1]: 1.1 fold | TNFRSF21 (218856_at) mRNA expression, Avg fold changes vs control [1]: 1.2 fold | TRB@ (210915_x_at) mRNA expression, Avg fold changes vs control [1]: 1.3 fold | TRB@ (213193_x_at) mRNA expression, Avg fold changes vs control [1]: 1.2 fold | 209813_x_at avg fold change vs control [2]: 0.4 fold | AIF1 (209901_x_at) avg fold change vs control [2]: 0.3 fold | AIF1 (213095_x_at) avg fold change vs control [2]: 0.6 fold | B2M (201891_s_at) avg fold change vs control [2]: 1.4 fold | BCL3 (204908_s_at) avg fold change vs control [2]: 0.7 fold | BTN3A1 (207485_x_at) avg fold change vs control [2]: 2.0 fold | BTN3A3 (38241_at) avg fold change vs control [2]: 14 fold | BTN3A3 (204820_s_at) avg fold change vs control [2]: 1.6 fold | BTN3A3 (204821_at) avg fold change vs control [2]: 1.7 fold | C1QA (218232_at) avg fold change vs control [2]: 0.9 fold | C1QB (202953_at) avg fold change vs control [2]: 1.0 fold | C1R (212067_s_at) avg fold change vs control [2]: 0.9 fold | C1S (208747_s_at) avg fold change vs control [2]: 1.3 fold | C2 (203052_at) avg fold change vs control [2]: 0.9 fold | C4A (208451_s_at) avg fold change vs control [2]: 1.1 fold | CASP1 (209970_x_at) avg fold change vs control [2]: 1.1 fold | CASP1 (211367_s_at) avg fold change vs control [2]: 1.4 fold | CCL2 (216598_s_at) avg fold change vs control [2]: 1.0 fold | CCL3 (205114_s_at) avg fold change vs control [2]: 1.4 fold | CCL5 (1405_i_at) avg fold change vs control [2]: 0.5 fold | CCL8 (214038_at) avg fold change vs control [2]: 1.8 fold | CCL18 (209924_at) avg fold change vs control [2]: 0.7 fold | CCL19 (210072_at) avg fold change vs control [2]: 1.2 fold | CCNB2 (202705_at) avg fold change vs control [2]: 1.4 fold | CD3D (213539_at) avg fold change vs control [2]: 2.0 fold | CD8A (205758_at) avg fold change vs control [2]: 1.3 fold | CD14 (201743_at) avg fold change vs control [2]: 0.8 fold | CD74 (209619_at) avg fold change vs control [2]: 1.1 fold | CLU (208791_at) avg fold change vs control [2]: 0.9 fold | CMAH (210571_s_at) avg fold change vs control [2]: 1.0 fold | CTSC (201487_at) avg fold change vs control [2]: 1.1 fold | CTSK (202450_s_at) avg fold change vs control [2]: 1.3 fold | CTSS (202902_s_at) avg fold change vs control [2]: 1.0 fold | CX3CR1 (205898_at) avg fold change vs control [2]: 1.0 fold | CXCL9 (203915_at) avg fold change vs control [2]: 1.6 fold | CXCL10 (204533_at) avg fold change vs control [2]: 1.1 fold | CXCL11 (210163_at) avg fold change vs control [2]: 1.5 fold | CXCL11 (211122_s_at) avg fold change vs control [2]: 1.0 fold | CXCL12 (209687_at) avg fold change vs control [2]: 1.0 fold | CYBA (203028_s_at) avg fold change vs control [2]: 1.1 fold | CYBB (203923_s_at) avg fold change vs control [2]: 0.9 fold | CYP1B1 (202436_s_at) avg fold change vs control [2]: 1.0 fold | CYP3A5 (214234_s_at) avg fold change vs control [2]: 0.9 fold | CYP11B1 (214630_at) avg fold change vs control [2]: 0.8 fold | DUSP6 (208893_s_at) avg fold change vs control [2]: 1.0 fold | ECGF1 (204858_s_at) avg fold change vs control [2]: 1.9 fold | ECM1 (209365_s_at) avg fold change vs control [2]: 1.3 fold | F2RL1 (206429_at) avg fold change vs control [2]: 2.0 fold | F13A1 (203305_at) avg fold change vs control [2]: 0.9 fold | FCGR1A (214511_x_at) avg fold change vs control [2]: 0.6 fold | FCGR3A (204006_s_at) avg fold change vs control [2]: 0.8 fold | G1P2 (205483_s_at) avg fold change vs control [2]: 3.3 fold | GZMB (210164_at) avg fold change vs control [2]: 1.6 fold | HCA127 (220040_x_at) avg fold change vs control [2]: 0.6 fold | HCK (208018_s_at) avg fold change vs control [2]: 1.2 fold | HFE (210864_x_at) avg fold change vs control [2]: 1.2 fold | HFE (211329_x_at) avg fold change vs control [2]: 0.9 fold | HFE (211332_x_at) avg fold change vs control [2]: 1.0 fold | HFE (211863_x_at) avg fold change vs control [2]: 0.8 fold
